Experimental data as given in patent publication US7074789B2, “Kinase inhibitors” (Amgen Inc., priority 1999, dated 2006).
Read-outs that look alike come from different tables or passages of the source.

Columns and labels:
Format in all cases: biochemical
Lck = target: T1, Lck (Homo sapiens, UniProt P06239); assay: Kinase inhibition assay (33P transfer), Lck; details: read-out: Lck-1
T1 construct: Kinases are expressed as either kinase domains or full length constructs; made in house
Summary of the method: (§1)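 Each kinase, expressed as a GST- or polyHis-tagged domain or full-length protein, phosphorylated plate-attached poly(Glu,Tyr) 4:1 or poly(Arg,Ser) 3:1 using 33P-ATP. Bound radioactivity was measured by scintillation after a 0.5% phosphoric acid wash.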

Zap-70 = target: T2, Zap-70 (Homo sapiens, UniProt P43403); assay: Kinase inhibition assay (33P transfer), Zap-70; details: read-out: Zap-1
T2 construct: Kinases are expressed as either kinase domains or full length constructs; made in house
T2 sequence (P43403 1-619): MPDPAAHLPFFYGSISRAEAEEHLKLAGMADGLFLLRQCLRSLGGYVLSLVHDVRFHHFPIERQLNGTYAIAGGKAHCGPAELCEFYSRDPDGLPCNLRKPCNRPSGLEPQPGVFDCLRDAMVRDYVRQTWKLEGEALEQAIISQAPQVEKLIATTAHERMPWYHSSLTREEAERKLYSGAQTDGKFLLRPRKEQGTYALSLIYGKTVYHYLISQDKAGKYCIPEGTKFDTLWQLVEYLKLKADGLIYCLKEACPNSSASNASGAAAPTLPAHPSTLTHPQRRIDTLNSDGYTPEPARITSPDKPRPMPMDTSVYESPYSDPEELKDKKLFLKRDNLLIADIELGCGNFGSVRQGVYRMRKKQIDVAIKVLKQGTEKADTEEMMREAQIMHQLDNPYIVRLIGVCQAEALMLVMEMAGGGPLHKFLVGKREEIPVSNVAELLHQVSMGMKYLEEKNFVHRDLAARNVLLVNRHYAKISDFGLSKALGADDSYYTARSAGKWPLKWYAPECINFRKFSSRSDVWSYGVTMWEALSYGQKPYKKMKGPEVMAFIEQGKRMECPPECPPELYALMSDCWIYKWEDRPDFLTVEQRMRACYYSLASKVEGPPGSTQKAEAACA
Summary of the method: as §1

Itk = target: T3, Itk (Homo sapiens, UniProt Q08881); assay: Kinase inhibition assay (33P transfer), Itk; details: read-out: Itk-1
T3 construct: Kinases are expressed as either kinase domains or full length constructs; made in house
T3 sequence (Q08881 1-620): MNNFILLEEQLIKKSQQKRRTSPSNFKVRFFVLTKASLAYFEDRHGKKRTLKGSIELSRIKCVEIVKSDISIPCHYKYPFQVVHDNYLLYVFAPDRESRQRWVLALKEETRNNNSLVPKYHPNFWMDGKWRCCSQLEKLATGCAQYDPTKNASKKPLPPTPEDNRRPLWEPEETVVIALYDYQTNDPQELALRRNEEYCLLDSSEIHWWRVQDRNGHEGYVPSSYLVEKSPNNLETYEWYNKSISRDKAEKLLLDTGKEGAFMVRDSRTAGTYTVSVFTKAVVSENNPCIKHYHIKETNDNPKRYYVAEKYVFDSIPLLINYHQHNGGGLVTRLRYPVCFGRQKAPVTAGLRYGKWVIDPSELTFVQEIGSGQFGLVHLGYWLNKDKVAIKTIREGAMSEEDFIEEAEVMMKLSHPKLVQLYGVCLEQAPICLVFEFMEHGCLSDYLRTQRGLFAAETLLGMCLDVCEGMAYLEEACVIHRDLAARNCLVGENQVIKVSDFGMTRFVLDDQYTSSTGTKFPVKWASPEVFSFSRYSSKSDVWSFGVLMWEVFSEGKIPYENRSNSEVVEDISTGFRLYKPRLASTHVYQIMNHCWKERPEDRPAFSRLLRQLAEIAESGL
Summary of the method: (§2)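 Using immobilised substrate copolymers (poly(Glu,Tyr) 4:1; poly(Arg,Ser) 3:1) and [33P]ATP, purified fusion kinases were allowed to react; plates were then rinsed in 0.5% phosphoric acid and counted in a scintillation detector. Half-maximal inhibition of label transfer defines IC50.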

EGFR = target: T4, EGFR (Homo sapiens, UniProt P00533); assay: Kinase inhibition assay (33P transfer), EGFR; details: Table 2, kinase inhibition class; read-out: EGFR-1
T4 construct: Kinases are expressed as either kinase domains or full length constructs; made in house
Summary of the method: as §2

ErbB2 = target: T5, ErbB2 (Homo sapiens, UniProt P04626); assay: Kinase inhibition assay (33P transfer), ErbB2; details: read-out: ErbB2-2
T5 construct: Kinases are expressed as either kinase domains or full length constructs; made in house
Summary of the method: as §2

Kdr = target: T6, Kdr (Homo sapiens, UniProt P35968); assay: Kinase inhibition assay (33P transfer), Kdr
T6 construct: Kinases are expressed as either kinase domains or full length constructs; made in house
Summary of the method: as §1

c-Met = target: T7, c-Met (Homo sapiens, UniProt P08581); assay: Kinase inhibition assay (33P transfer), c-Met; details: Table 2, kinase inhibition class; read-out: Met-1
T7 construct: Kinases are expressed as either kinase domains or full length constructs; made in house
Summary of the method: as §2

AKT = target: T8, AKT (Homo sapiens, UniProt Q9Y243); assay: Kinase inhibition assay (33P transfer), AKT; details: Table 2, kinase inhibition class; read-out: AKT3-1
T8 construct: Kinases are expressed as either kinase domains or full length constructs; made in house
Summary of the method: as §1

IGFR-1 = target: T9, IGFR-1 (Homo sapiens, UniProt P08069); assay: Kinase inhibition assay, IGFR-1 (Table 2); details: Table 2, kinase inhibition class
T9 construct: Kinases are expressed as either kinase domains or full length constructs; made in house

PDGFRB = target: T10, PDGFRB (Homo sapiens, UniProt P09619); assay: Kinase inhibition assay (33P transfer), PDGFRB; details: read-out: PDGFRB-1
T10 construct: Kinases are expressed as either kinase domains or full length constructs; made in house

Tek = target: T11, Tek (Homo sapiens, UniProt Q02763); assay: Kinase inhibition assay (33P transfer), Tek; details: read-out: Tek-1
T11 construct: Kinases are expressed as either kinase domains or full length constructs; made in house
Summary of the method: as §2

T1 sequence (P06239 whole entry, species assumed, the tested form may be a part): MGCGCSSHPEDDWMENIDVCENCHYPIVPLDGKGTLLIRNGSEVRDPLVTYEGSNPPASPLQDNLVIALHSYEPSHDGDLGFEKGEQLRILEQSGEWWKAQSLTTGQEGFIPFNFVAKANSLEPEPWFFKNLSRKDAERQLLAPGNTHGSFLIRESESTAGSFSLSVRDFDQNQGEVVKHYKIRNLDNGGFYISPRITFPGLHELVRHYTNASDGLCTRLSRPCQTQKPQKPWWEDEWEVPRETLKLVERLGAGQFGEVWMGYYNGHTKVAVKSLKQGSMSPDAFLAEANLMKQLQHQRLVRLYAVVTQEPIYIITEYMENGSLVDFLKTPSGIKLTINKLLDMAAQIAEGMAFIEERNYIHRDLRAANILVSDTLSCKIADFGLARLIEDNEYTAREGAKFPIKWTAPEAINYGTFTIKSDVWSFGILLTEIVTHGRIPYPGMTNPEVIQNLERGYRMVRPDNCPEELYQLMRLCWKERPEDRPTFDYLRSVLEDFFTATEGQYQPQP
T4 sequence (P00533 25-1210, species assumed): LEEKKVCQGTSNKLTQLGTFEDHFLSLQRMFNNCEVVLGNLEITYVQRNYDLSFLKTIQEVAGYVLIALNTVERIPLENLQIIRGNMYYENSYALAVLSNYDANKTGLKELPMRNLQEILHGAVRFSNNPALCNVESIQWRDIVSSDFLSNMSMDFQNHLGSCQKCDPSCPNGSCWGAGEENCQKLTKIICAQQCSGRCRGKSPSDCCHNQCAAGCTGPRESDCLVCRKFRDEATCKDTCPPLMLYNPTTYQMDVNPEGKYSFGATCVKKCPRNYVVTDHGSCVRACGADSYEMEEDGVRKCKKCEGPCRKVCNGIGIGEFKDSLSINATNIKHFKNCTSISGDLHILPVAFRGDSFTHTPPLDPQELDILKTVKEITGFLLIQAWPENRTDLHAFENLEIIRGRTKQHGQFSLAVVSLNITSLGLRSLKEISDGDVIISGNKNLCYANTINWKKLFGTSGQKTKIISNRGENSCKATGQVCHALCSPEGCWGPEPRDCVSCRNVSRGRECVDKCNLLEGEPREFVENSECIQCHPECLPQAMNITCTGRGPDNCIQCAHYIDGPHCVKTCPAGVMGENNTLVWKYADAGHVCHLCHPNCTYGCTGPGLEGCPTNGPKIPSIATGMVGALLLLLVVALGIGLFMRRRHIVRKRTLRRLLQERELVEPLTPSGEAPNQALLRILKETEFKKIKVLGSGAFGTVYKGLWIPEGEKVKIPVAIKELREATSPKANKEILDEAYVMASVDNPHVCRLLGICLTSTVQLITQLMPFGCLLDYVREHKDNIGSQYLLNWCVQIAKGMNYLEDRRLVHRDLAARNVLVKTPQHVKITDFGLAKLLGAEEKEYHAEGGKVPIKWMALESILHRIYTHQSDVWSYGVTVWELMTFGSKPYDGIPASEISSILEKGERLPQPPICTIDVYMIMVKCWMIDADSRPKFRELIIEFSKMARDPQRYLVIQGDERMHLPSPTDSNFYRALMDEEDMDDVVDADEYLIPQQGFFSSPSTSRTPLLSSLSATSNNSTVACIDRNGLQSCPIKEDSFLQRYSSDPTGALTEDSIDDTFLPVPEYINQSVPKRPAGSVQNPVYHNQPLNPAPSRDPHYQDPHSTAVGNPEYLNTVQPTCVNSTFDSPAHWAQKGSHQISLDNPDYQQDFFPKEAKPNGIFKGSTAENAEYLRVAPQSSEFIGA
T11 sequence (Q02763 23-1124, species assumed): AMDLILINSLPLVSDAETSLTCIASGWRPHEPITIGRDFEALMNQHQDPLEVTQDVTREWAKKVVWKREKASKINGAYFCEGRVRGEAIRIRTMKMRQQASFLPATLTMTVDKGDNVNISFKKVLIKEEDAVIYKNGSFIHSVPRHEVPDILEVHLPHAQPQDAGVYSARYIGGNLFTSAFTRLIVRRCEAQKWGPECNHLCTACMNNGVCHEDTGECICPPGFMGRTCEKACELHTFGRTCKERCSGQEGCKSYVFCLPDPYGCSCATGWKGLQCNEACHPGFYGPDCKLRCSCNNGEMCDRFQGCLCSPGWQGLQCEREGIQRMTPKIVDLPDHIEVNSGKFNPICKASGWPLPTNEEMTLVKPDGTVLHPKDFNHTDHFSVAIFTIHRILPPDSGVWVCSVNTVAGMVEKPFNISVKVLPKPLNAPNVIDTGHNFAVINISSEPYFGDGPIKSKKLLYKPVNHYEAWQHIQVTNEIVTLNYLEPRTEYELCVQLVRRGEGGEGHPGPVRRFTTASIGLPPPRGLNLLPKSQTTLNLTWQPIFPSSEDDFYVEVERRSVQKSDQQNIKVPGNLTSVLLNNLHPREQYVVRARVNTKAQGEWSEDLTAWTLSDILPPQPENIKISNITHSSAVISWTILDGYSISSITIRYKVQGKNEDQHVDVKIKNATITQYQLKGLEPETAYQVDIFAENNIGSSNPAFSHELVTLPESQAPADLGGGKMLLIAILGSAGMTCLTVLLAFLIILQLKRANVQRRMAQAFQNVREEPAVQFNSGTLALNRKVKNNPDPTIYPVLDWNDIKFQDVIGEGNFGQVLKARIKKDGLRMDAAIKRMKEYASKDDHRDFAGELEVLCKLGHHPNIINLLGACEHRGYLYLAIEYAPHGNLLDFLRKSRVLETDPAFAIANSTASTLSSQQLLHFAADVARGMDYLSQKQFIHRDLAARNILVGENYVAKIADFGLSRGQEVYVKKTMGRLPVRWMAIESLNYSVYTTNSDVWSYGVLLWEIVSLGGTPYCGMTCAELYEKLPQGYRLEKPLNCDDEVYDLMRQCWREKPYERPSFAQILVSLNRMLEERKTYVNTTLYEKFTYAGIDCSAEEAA
T9 sequence (P08069 31-1367): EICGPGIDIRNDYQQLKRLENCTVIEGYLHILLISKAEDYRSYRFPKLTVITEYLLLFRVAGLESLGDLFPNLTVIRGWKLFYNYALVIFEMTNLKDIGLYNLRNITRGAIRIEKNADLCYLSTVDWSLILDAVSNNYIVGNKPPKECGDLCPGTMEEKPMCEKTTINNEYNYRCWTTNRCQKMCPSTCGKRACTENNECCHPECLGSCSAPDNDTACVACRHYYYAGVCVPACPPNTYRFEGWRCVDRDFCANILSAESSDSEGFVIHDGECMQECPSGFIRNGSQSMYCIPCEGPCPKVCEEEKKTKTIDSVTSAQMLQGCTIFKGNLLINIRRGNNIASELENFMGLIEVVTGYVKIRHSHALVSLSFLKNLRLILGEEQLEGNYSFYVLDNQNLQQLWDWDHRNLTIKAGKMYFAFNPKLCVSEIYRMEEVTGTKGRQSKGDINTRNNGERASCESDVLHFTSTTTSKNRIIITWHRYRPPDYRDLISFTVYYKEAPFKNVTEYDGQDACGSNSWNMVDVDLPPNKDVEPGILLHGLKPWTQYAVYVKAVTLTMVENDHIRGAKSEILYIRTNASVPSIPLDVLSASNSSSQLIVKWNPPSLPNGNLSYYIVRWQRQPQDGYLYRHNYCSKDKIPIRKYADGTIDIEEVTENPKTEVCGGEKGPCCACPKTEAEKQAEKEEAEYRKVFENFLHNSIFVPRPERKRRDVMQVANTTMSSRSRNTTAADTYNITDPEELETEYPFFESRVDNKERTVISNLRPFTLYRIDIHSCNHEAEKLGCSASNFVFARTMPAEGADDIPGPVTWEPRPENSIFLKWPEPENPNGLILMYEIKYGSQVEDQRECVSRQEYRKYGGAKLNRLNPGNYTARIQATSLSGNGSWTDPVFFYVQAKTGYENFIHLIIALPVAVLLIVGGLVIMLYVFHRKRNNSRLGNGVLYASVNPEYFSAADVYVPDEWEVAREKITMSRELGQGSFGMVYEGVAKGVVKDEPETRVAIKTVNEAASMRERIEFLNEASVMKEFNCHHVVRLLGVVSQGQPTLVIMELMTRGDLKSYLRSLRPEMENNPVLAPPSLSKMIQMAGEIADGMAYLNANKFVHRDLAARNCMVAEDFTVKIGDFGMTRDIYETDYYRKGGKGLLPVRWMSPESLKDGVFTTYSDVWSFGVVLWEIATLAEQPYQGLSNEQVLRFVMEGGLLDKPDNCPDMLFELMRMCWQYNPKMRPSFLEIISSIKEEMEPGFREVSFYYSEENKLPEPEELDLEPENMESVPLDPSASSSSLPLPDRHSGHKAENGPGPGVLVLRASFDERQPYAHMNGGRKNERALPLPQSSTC
T8 sequence (Q9Y243 whole entry, the tested form may be a part): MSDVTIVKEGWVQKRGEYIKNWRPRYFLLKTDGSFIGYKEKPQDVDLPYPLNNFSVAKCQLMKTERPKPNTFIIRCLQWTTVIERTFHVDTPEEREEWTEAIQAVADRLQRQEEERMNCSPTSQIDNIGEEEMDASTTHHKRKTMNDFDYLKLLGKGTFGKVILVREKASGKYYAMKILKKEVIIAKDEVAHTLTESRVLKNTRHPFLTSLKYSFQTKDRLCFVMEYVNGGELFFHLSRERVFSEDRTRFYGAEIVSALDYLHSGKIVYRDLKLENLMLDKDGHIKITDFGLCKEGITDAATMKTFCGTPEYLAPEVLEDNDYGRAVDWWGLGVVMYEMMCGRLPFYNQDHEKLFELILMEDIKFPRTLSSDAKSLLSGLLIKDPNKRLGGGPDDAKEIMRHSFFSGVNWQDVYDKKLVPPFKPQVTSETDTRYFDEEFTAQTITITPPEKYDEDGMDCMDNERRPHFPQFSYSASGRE

SMILES	IC50 (Lck) [µM]	IC50 (Zap-70) [µM]	IC50 (Itk) [µM]	IC50 (EGFR) [µM]	IC50 (ErbB2) [µM]	IC50 (Kdr; read-out: KDR-1) [µM]	IC50 (c-Met) [µM]	IC50 (AKT) [µM]	IC50 (IGFR-1) [µM]	IC50 (PDGFRB) [µM]	IC50 (Tek) [µM]	IC50 (Kdr; KDR-1) [µM]
COc1cc(Nc2ncnc(-n3c(NCc4ccc(N(C)C)cc4)nc4ccccc43)n2)cc(OC)c1OC [Compound 593]	0.76 to 4.56	> 8.55	> 8.55	4.56 to 6.65	4.56 to 6.65	0.76 to 4.56	> 8.55	> 8.55	< 0.76	0.76 to 4.56		
COc1ccc(CNc2nc3ccccc3n2-c2ncnc(Nc3cc(OC)c(OC)c(OC)c3)n2)cc1OC [Compound 596]	> 8.28	> 8.28	> 8.28	4.42 to 6.44	0.736 to 4.42	6.44 to 8.28	> 8.28	> 8.28	> 8.28	4.42 to 6.44		
COc1cc(Nc2ncnc(-n3c(NCc4ccc(Cl)cc4C)nc4ccccc43)n2)cc(OC)c1OC [Compound 597]	0.752 to 4.51	> 8.46	> 8.46	6.58 to 8.46	0.752 to 4.51	0.752 to 4.51	> 8.46	4.51 to 6.58	6.58 to 8.46	4.51 to 6.58		
COc1cc(Nc2ncnc(-n3c(NCc4ccc(C(F)(F)F)cc4)nc4ccccc43)n2)cc(OC)c1OC [Compound 598]	> 8.16	> 8.16	> 8.16	> 8.16	6.35 to 8.16	0.725 to 4.35	> 8.16	> 8.16	> 8.16	> 8.16		
COc1ccc(Nc2ncnc(Nc3cc(OC)c(OC)c(OC)c3)n2)cc1OCCN1CCOCC1 [Compound 599]	0.78 to 4.68	> 8.78	> 8.78	6.83 to 8.78	4.68 to 6.83	4.68 to 6.83	> 8.78	> 8.78	> 8.78	0.78 to 4.68		
COc1cc(Nc2ncnc(Nc3cc(OC)c(OC)c(OC)c3)n2)ccc1OCCN1CCOCC1 [Compound 601]	0.78 to 4.68	> 8.78	> 8.78	0.78 to 4.68	0.78 to 4.68	4.68 to 6.83	> 8.78	> 8.78	> 8.78	0.78 to 4.68		
COC(=O)c1ccc(-c2cc(Nc3ncnc(Nc4cccc(CC(=O)O)c4)n3)[nH]n2)cc1 [Compound 604]	0.898 to 5.39	5.39 to 7.86	0.898 to 5.39	0.898 to 5.39	0.898 to 5.39	0.898 to 5.39	< 0.898	5.39 to 7.86	0.898 to 5.39	0.898 to 5.39		
COc1cc(Nc2ncnc(Nc3ccc(NC(C)=O)c(C(F)(F)F)c3)n2)cc(OC)c1OC [Compound 617]	0.836 to 5.02	> 9.41	> 9.41	5.02 to 7.32	> 9.41	0.836 to 5.02	> 9.41	> 9.41	5.02 to 7.32	0.836 to 5.02		
CCN(CC)CCOc1cc(Nc2ncnc(-n3c(N)nc4ccccc43)n2)ccc1OC [Compound 649]	0.892 to 5.35	> 10	7.8 to 10	> 10		0.892 to 5.35	> 10	> 10	< 0.892	0.892 to 5.35	5.35 to 7.8	
COc1cc(Nc2ncnc(-n3c(N)nc4ccccc43)n2)ccc1OCCN1CCOCC1 [Compound 650]	0.865 to 5.19	> 9.73	> 9.73	> 9.73		< 0.865	7.57 to 9.73	> 9.73	< 0.865	0.865 to 5.19	7.57 to 9.73	
Nc1nc2ccccc2n1-c1ncnc(Nc2ccccc2)n1 [Compound 651]	1.32 to 7.91	> 14.8	1.32 to 7.91	> 14.8		< 1.32	1.32 to 7.91	> 14.8	< 1.32	1.32 to 7.91	7.91 to 11.5	
Nc1nc2ccccc2n1-c1ncnc(Nc2ccccn2)n1 [Compound 659]	7.89 to 11.5	> 14.8	1.31 to 7.89	> 14.8	> 14.8		> 14.8	> 14.8	1.31 to 7.89	> 14.8		7.89 to 11.5
COc1cc(Nc2ncnc(NC(=O)NCc3ccccc3)n2)cc(OC)c1OC [Compound 660]	0.975 to 5.85	> 11	> 11	0.975 to 5.85	5.85 to 8.53	> 11	> 11	> 11	> 11	> 11		
COc1cc(Nc2ncnc(NC(=O)NCCc3ccccc3)n2)cc(OC)c1OC [Compound 661]	> 10.6	> 10.6	> 10.6	> 10.6	> 10.6	0.942 to 5.65	> 10.6	> 10.6	> 10.6	> 10.6		
